Assay [1] deals with T1, LK35.2-hPD-L1 cells / PE-labeled PD-1-Ig (Homo sapiens, UniProt Q9NZQ7).
T1 construct: expressed in transfected cells; host or cells: LK35.2 mouse B cell line
Put plainly: LK35.2-hPD-L1 cell binding high-content screening assay. It counts as cell-based. To be noted: cluster symbol; cell line of CBA not given (LK35.2-hPD-L1 or 293T-hPD-L1); read-out: CBA IC50 cluster. In short, it runs like this: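 Mouse LK35.2 B cells stably over-expressing human PD-L1, cultured overnight, treated with compound plus PE-labeled human PD-1-Ig (1 nM final) in RPMI/10% FCS for 1 h at 37 °C. After washing, bound fluorescence quantified by high-content imaging.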

In the next assay the target is T2, Human PD-L1/PD-1 (Homo sapiens, UniProt Q9NZQ7).
T2 construct: made in house; host or cells: HEK293T
Put plainly: HTRF PD-1-Ig/PD-L1-His binding assay (human PD-L1). To be noted: cluster symbol; read-out: HTRF IC50 cluster. An outline of the steps: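 Soluble PD-1-Ig binding to PD-L1-His measured by HTRF in dPBS with 0.1% BSA and 0.05% Tween-20. Detection used europium cryptate anti-Ig antibody (1 nM final) and APC anti-His antibody (20 nM final) added on top of the binding reaction.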
Background: In TR-FRET formats the signal depends on donor and acceptor labels being close together.

Positions of bridges follow the written chain, without caps; N, C: chain ends. Non-standard residues stand in square brackets, D forms with d. Residues, ends and D or L forms follow the SMILES beside them. Phe(3-Cl) = N[C@@H](Cc1cccc(Cl)c1)C(=O)O; Pro(4R-NH2) = N[C@H]1CN[C@H](C(=O)O)C1; NMeF = CN[C@@H](Cc1ccccc1)C(=O)O; NMeNle = CCCC[C@H](NC)C(=O)O; Sar = CNCC(=O)O A value given as a limit tells only on which side of the number the result lay.

T1 sequence (Q9NZQ7 19-290): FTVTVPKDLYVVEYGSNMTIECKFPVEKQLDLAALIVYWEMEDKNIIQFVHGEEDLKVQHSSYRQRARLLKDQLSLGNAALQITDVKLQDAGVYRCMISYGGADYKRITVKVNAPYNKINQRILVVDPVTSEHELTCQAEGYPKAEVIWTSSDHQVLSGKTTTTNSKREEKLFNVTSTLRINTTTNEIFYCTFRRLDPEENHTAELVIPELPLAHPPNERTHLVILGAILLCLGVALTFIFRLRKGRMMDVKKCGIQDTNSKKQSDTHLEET
T2 sequence (Q9NZQ7 with tags, fused parts or gaps): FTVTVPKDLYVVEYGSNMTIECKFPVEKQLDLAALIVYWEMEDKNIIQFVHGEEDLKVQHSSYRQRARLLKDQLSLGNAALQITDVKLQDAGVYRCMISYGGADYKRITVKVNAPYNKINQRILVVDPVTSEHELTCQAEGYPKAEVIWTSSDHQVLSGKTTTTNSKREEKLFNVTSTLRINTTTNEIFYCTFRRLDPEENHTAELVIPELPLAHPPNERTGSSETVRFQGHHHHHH

By IC50 is commonly meant the concentration needed to halve the response being measured. As to `CCCC[C@H]1C(=O)N(C)CC(=O)N[C@@H](CC(=O)O)C(=O)N[C@@H](C(C)C)C(=O)N(C)[C@@H](Cc2ccccc2)C(=O)N[C@@H](Cc2ccc(O)cc2)C(=O)N(C)CC(=O)N[C@@H](Cc2c[nH]c3ccccc23)C(=O)N[C@@H](Cc2ccc(O)cc2)C(=O)N[C@@H](CCCN)C(=O)N[C@H](C(=O)NCC(N)=O)CSCC(=O)N[C@@H](Cc2ccccc2)C(=O)N(C)[C@@H](Cc2ccccc2)C(=O)N1C` [Example 3163] (HELM PEPTIDE1{[O=C(C[*:3])[*:2]].F.[meF].[CCCC[C@@H](C(=O)[*:2])N(C)[*:1]].[Sar].D.V.[meF].Y.[Sar].W.Y.[Orn].C.G.[am]}$PEPTIDE1,PEPTIDE1,1:R3-14:R3$$$V2.0), the IC50 in assay [1] was in the range of 4.78 to 72.9 nM; at Human PD-L1/PD-1, 6.76 to 30.3 nM.

`CCCC[C@H]1C(=O)N(C)CC(=O)N[C@@H](CC(=O)O)C(=O)N[C@@H](C(C)C)C(=O)N(C)[C@@H](Cc2ccccc2)C(=O)N[C@@H](Cc2ccc(O)cc2)C(=O)N(C)CC(=O)N[C@@H](Cc2c[nH]c3ccccc23)C(=O)N[C@@H](Cc2ccc(O)cc2)C(=O)N[C@@H](CCCCN)C(=O)N[C@H](C(=O)NCC(N)=O)CSCC(=O)N[C@@H](Cc2ccccc2)C(=O)N(C)[C@@H](Cc2ccccc2)C(=O)N1C` [Example 3164] (HELM PEPTIDE1{[O=C(C[*:3])[*:2]].F.[meF].[CCCC[C@@H](C(=O)[*:2])N(C)[*:1]].[Sar].D.V.[meF].Y.[Sar].W.Y.K.C.G.[am]}$PEPTIDE1,PEPTIDE1,1:R3-14:R3$$$V2.0): the IC50 in assay [1] was in the range of 4.78 to 72.9 nM; at Human PD-L1/PD-1 it was 6.76 to 30.3 nM.

Take `CCCC[C@H]1C(=O)N(C)CC(=O)N[C@@H](CC(=O)O)C(=O)N[C@@H](C(C)C)C(=O)N(C)[C@@H](Cc2ccccc2)C(=O)N[C@@H](Cc2ccc(O)cc2)C(=O)N(C)CC(=O)N[C@@H](Cc2c[nH]c3ccccc23)C(=O)N[C@@H](Cc2ccc(O)cc2)C(=O)N[C@@H](Cc2c[nH]cn2)C(=O)N[C@H](C(=O)NCC(N)=O)CSCC(=O)N[C@@H](Cc2ccccc2)C(=O)N(C)[C@@H](Cc2ccccc2)C(=O)N1C` [Example 3165] (HELM PEPTIDE1{[O=C(C[*:3])[*:2]].F.[meF].[CCCC[C@@H](C(=O)[*:2])N(C)[*:1]].[Sar].D.V.[meF].Y.[Sar].W.Y.H.C.G.[am]}$PEPTIDE1,PEPTIDE1,1:R3-14:R3$$$V2.0): the results for the IC50 (in assay [1]; at Human PD-L1/PD-1) were 4.78 to 72.9 nM and 6.76 to 30.3 nM, respectively.

In the case of `CCCC[C@H]1C(=O)N(C)CC(=O)N[C@@H](CC(=O)O)C(=O)N[C@@H](C(C)C)C(=O)N(C)[C@@H](Cc2ccccc2)C(=O)N[C@@H](Cc2ccc(O)cc2)C(=O)N2CCC[C@@H]2C(=O)N[C@@H](Cc2c[nH]c3ccccc23)C(=O)N[C@@H](Cc2ccc(O)cc2)C(=O)N[C@@H](CC(C)C)C(=O)N[C@H](C(N)=O)CSCC(=O)N[C@@H](Cc2cccc(Cl)c2)C(=O)N(C)[C@@H](Cc2ccccc2)C(=O)N1C` [Example 3166] ({CH2CO}-[Phe(3-Cl)][NMeF][NMeNle][Sar]DV[NMeF]Y[dP]WYLC-NH2; thioether N-13), the IC50 in assay [1] is 0.158 to 4.71 nM; on Human PD-L1/PD-1, 6.76 to 30.3 nM.

For the compound `CCCC[C@H]1C(=O)N(C)CC(=O)N[C@@H](CC(=O)O)C(=O)N[C@@H](C(C)C)C(=O)N(C)[C@@H](Cc2ccc(O)cc2)C(=O)N[C@@H](Cc2ccc(O)cc2)C(=O)N(C)CC(=O)N[C@@H](Cc2c[nH]c3ccccc23)C(=O)N[C@@H](Cc2ccc(O)cc2)C(=O)N[C@@H](CC(C)C)C(=O)N[C@H](C(=O)NCC(N)=O)CSCC(=O)N[C@@H](Cc2ccccc2)C(=O)N(C)[C@@H](Cc2ccccc2)C(=O)N1C` [Example 3168] (HELM PEPTIDE1{[O=C(C[*:3])[*:2]].F.[meF].[CCCC[C@@H](C(=O)[*:2])N(C)[*:1]].[Sar].D.V.[meY].Y.[Sar].W.Y.L.C.G.[am]}$PEPTIDE1,PEPTIDE1,1:R3-14:R3$$$V2.0), the figures for the IC50 (in assay [1]; at Human PD-L1/PD-1) were greater than 74.3 nM and greater than 30.5 nM, respectively.

For `CCCC[C@@H]1NC(=O)CSC[C@@H](C(=O)NCC(N)=O)NC(=O)[C@H](CC(C)C)NC(=O)[C@H](Cc2ccc(O)cc2)NC(=O)[C@H](Cc2c[nH]c3ccccc23)NC(=O)CN(C)C(=O)[C@H](Cc2ccc(O)cc2)NC(=O)[C@H](Cc2ccccc2)N(C)C(=O)[C@H](C(C)C)NC(=O)[C@H](CC(=O)O)NC(=O)CN(C)C(=O)[C@H](CCCC)N(C)C(=O)[C@H](Cc2ccccc2)N(C)C1=O` [Example 3171] (HELM PEPTIDE1{[O=C(C[*:3])[*:2]].[Nle].[meF].[CCCC[C@@H](C(=O)[*:2])N(C)[*:1]].[Sar].D.V.[meF].Y.[Sar].W.Y.L.C.G.[am]}$PEPTIDE1,PEPTIDE1,1:R3-14:R3$$$V2.0), the IC50 in assay [1] was greater than 74.3 nM; on Human PD-L1/PD-1, greater than 30.5 nM.

For `CCCC[C@H]1C(=O)N(C)CC(=O)N[C@@H](CC(=O)O)C(=O)N[C@@H](C(C)C)C(=O)N(C)[C@@H](Cc2ccccc2)C(=O)N[C@@H](Cc2ccc(O)cc2)C(=O)N(C)CC(=O)N[C@@H](Cc2c[nH]c3ccccc23)C(=O)N[C@@H](Cc2ccc(O)cc2)C(=O)N[C@@H](CC(C)C)C(=O)N[C@H](C(=O)NCC(N)=O)CSCC(=O)N[C@@H](CCSC)C(=O)N(C)[C@@H](Cc2ccccc2)C(=O)N1C` [Example 3172] (HELM PEPTIDE1{[O=C(C[*:3])[*:2]].M.[meF].[CCCC[C@@H](C(=O)[*:2])N(C)[*:1]].[Sar].D.V.[meF].Y.[Sar].W.Y.L.C.G.[am]}$PEPTIDE1,PEPTIDE1,1:R3-14:R3$$$V2.0), the IC50 in assay [1] is greater than 74.3 nM; on Human PD-L1/PD-1, greater than 30.5 nM.

In the case of `CCCC[C@H]1C(=O)N2CCC[C@@H]2C(=O)N2CCC[C@H]2C(=O)N[C@@H](C(C)C)C(=O)N(C)[C@@H](Cc2ccccc2)C(=O)N[C@@H](Cc2ccc(O)cc2)C(=O)N(C)CC(=O)N[C@@H](Cc2c[nH]c3ccccc23)C(=O)N[C@@H](Cc2ccc(O)cc2)C(=O)N[C@@H](CC(C)C)C(=O)N[C@H](C(=O)NCC(N)=O)CSCC(=O)N[C@@H](Cc2ccccc2)C(=O)N(C)[C@@H](Cc2ccccc2)C(=O)N1C` [Example 3173] (HELM PEPTIDE1{[O=C(C[*:3])[*:2]].F.[meF].[CCCC[C@@H](C(=O)[*:2])N(C)[*:1]].[dP].P.V.[meF].Y.[Sar].W.Y.L.C.G.[am]}$PEPTIDE1,PEPTIDE1,1:R3-14:R3$$$V2.0), the figures for the IC50 (in assay [1]; at Human PD-L1/PD-1) were 4.78 to 72.9 nM and greater than 30.5 nM, respectively.

Take `CCCC[C@H]1C(=O)N2CCC[C@@H]2C(=O)N2C[C@H](O)C[C@H]2C(=O)N[C@@H](C(C)C)C(=O)N(C)[C@@H](Cc2ccccc2)C(=O)N[C@@H](Cc2ccc(O)cc2)C(=O)N(C)CC(=O)N[C@@H](Cc2c[nH]c3ccccc23)C(=O)N[C@@H](Cc2ccc(O)cc2)C(=O)N[C@@H](CC(C)C)C(=O)N[C@H](C(=O)NCC(N)=O)CSCC(=O)N[C@@H](Cc2ccccc2)C(=O)N(C)[C@@H](Cc2ccccc2)C(=O)N1C` [Example 3174] (HELM PEPTIDE1{[O=C(C[*:3])[*:2]].F.[meF].[CCCC[C@@H](C(=O)[*:2])N(C)[*:1]].[dP].[Hyp].V.[meF].Y.[Sar].W.Y.L.C.G.[am]}$PEPTIDE1,PEPTIDE1,1:R3-14:R3$$$V2.0): the IC50 was 4.78 to 72.9 nM in assay [1] and greater than 30.5 nM on Human PD-L1/PD-1.

Turning to `CCCC[C@H]1C(=O)N2CCC[C@@H]2C(=O)N2C[C@H](N)C[C@H]2C(=O)N[C@@H](C(C)C)C(=O)N(C)[C@@H](Cc2ccccc2)C(=O)N[C@@H](Cc2ccc(O)cc2)C(=O)N(C)CC(=O)N[C@@H](Cc2c[nH]c3ccccc23)C(=O)N[C@@H](Cc2ccc(O)cc2)C(=O)N[C@@H](CC(C)C)C(=O)N[C@H](C(=O)NCC(N)=O)CSCC(=O)N[C@@H](Cc2ccccc2)C(=O)N(C)[C@@H](Cc2ccccc2)C(=O)N1C` [Example 3175] ({CH2CO}-F[NMeF][NMeNle][dP][Pro(4R-NH2)]V[NMeF]Y[Sar]WYLCG-NH2; thioether N-13), the IC50 in assay [1] fell in the range of 4.78 to 72.9 nM; on Human PD-L1/PD-1 it was 6.76 to 30.3 nM.

Source of the values: patent US9850283B2, “Macrocyclic inhibitors of the PD-1/PD-L1 and CD80(B7-1)/PD-L1 protein/protein interactions” (BRISTOL-MYERS SQUIBB COMPANY, priority 2013, dated 2017).
